Measured values reported in ChEMBL document CHEMBL4266046, “β-Triketone-Monoterpene Hybrids from the Flowers of the Australian Tree Corymbia intermedia” (J Nat Prod, 2018).

How the values were obtained:
[1] = test system: Plasmodium falciparum; experiment: Antiplasmodial activity against synchronized ring stage of chloroquine-sensitive Plasmodium falciparum 3D7 infected in human erythrocytes assessed as inhibition of parasite replication after 72 hrs by DAPI staining based fluorescence imaging analysis; type: functional, organism-based; conditions: 3D7, 72 h
[2] = (§1) Cytotoxicity against HEK293 cells assessed as inhibition of cell proliferation at 100 uM relative to control; type: cell-based; conditions: human, HEK293 cells
[3] = test system: Plasmodium falciparum; experiment: Antiplasmodial activity against synchronized ring stage of chloroquine-sensitive Plasmodium falciparum 3D7 infected in human erythrocytes assessed as inhibition of parasite replication at higher concentration after 72 hrs by DAPI staining based fluorescence imaging analysis relative to control; type: functional
[4] = test system: HEK293; experiment: as §1; type: cell-based; conditions: human, hek293, 100 µM

Row | IC50 [1] | Structure (SMILES) | inhibition at 100 µM [2] | inhibition (INH) [3] | Activity [4]
1 | 12.5 µM | CC1(C)C(=O)C2=C(O[C@]3(CC[C@H]4C[C@@H]3C4(C)C)C[C@@H]2c2ccccc2)C(C)(C)C1=O | 64% | – | –
2 | 20.8 µM | CC1(C)C(=O)C2=C(O[C@@]3(C)[C@H](C[C@@H]4C[C@H]3C4(C)C)[C@H]2c2ccccc2)C(C)(C)C1=O | – | 100% | Non-Toxic
3 | 9.9 µM | CC1(C)C(=O)C2=C(O[C@]3(CC[C@H]4C[C@@H]3C4(C)C)C[C@H]2c2ccccc2)C(C)(C)C1=O | – | 100% | –
